Results taken from ChEMBL document CHEMBL4420076, “Amylin and calcitonin receptor agonist” (2017).
Numbered stars: 1 amine (or outer) side, 2 acyl side, 3 side chain; on linkers, the order of the positions; unused ones are H or OH. Peptide text beside a SMILES is read from it. * marks the point of attachment. C20 diacid = O=C(O)CCCCCCCCCCCCCCCCCCC(=O)*; C18 diacid = O=C(O)CCCCCCCCCCCCCCCCC(=O)*; γGlu = O=C(O)[C@H](CCC(=O)[*:2])N[*:1]; AEEA = NCCOCCOCC(=O)O

Legend:
[1] = Terminal half life in Sprague-Dawley rat at 20 nmol/kg, sc by LC-MS analysis; assay type: ADME, organism-based; conditions: in vivo, read-out: beta t1/2 (converted)
Rattus norvegicus [2] = experiment: Reduction in food intake in Sprague-Dawley rat at 3 nmol/kg measured 0 to 24 hrs post dose relative to control; assay type: functional; design: scale not given: the % may be the effect or the level left
Rattus norvegicus [3] = experiment: Reduction in food intake in Sprague-Dawley rat at 3 nmol/kg measured 24 to 48 hrs post dose relative to control; assay type: functional; design: scale not given: the % may be the effect or the level left
[4] = biological target: T1, Amylin receptor AMY3; CALCR/RAMP3 (Homo sapiens, UniProt O60896+P30988); experiment: Agonist activity at human amylin receptor expressed in BHK570 cells co-expressing RAMP3 assessed as increase in intracellular cAMP concentration incubated for 3 hrs in absence of albumin by CRE luciferase reporter gene assay; assay type: functional, cell-based
T1 sequence (P30988 whole entry): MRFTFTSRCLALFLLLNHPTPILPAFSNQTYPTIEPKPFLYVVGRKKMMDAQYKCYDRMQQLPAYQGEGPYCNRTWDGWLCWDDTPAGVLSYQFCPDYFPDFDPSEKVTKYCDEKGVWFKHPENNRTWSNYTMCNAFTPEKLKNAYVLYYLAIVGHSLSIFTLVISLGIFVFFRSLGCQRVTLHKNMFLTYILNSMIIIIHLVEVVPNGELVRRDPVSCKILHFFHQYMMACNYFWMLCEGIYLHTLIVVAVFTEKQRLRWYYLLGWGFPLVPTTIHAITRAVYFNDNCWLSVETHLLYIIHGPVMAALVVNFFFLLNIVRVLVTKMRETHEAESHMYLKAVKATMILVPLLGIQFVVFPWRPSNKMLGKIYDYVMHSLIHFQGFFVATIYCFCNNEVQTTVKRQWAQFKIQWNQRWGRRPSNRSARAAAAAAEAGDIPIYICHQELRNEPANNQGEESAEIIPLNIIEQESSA
T1 sequence (O60896 whole entry): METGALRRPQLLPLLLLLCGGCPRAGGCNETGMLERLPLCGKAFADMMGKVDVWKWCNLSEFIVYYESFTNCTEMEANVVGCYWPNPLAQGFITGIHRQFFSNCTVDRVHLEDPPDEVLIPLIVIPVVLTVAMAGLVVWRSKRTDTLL

Calcitonin receptor [5] = biological target: T2, Calcitonin receptor (Homo sapiens, UniProt P30988); experiment: Agonist activity at human calcitonin receptor expressed in BHK570 cells assessed as increase in intracellular cAMP concentration incubated for 3 hrs in absence of albumin by CRE luciferase reporter gene assay; assay type: functional, cell-based
T2 sequence (P30988 whole entry): T1 sequence (P30988 whole entry)

[6] = biological target: T1, Amylin receptor AMY3; CALCR/RAMP3; experiment: Agonist activity at human amylin receptor expressed in BHK570 cells co-expressing RAMP3 assessed as increase in intracellular cAMP concentration incubated for 3 hrs in presence of 10% FBS by CRE luciferase reporter gene assay; assay type: functional, cell-based
Calcitonin receptor [7] = biological target: T2, Calcitonin receptor; experiment: Agonist activity at human calcitonin receptor expressed in BHK570 cells assessed as increase in intracellular cAMP concentration incubated for 3 hrs in presence of 10% FBS by CRE luciferase reporter gene assay; assay type: functional, cell-based
[8] = Stability in pH 7.5 buffer assessed as lag time for fibril formation at 1 uM by Thioflavin T based fluorescence assay; assay type: physicochemical; conditions: pH 7.5, 1 µM
[9] = Stability in pH 7.5 buffer assessed as compound recovery at 1 uM by Thioflavin T based fluorescence assay; assay type: physicochemical; conditions: read-out: Drug recovery
[10] = Solubility in 100 mM glycylglycine buffer at pH 3.0 incubated for 18 hrs by UPLC analysis; assay type: physicochemical
[11] = Solubility in 100 mM glycylglycine buffer at pH 4.0 incubated for 18 hrs by UPLC analysis; assay type: physicochemical
[12] = Solubility in 100 mM bistrispropane buffer at pH 6.0 incubated for 18 hrs by UPLC analysis; assay type: physicochemical
[13] = Solubility in 100 mM glycylglycine buffer at pH 5.0 incubated for 18 hrs by UPLC analysis; assay type: physicochemical
[14] = Solubility in 100 mM bistrispropane buffer at pH 6.5 incubated for 18 hrs by UPLC analysis; assay type: physicochemical
[15] = Solubility in 100 mM bistrispropane buffer at pH 7.0 incubated for 18 hrs by UPLC analysis; assay type: physicochemical
[16] = Solubility in 100 mM bistrispropane buffer at pH 7.5 incubated for 18 hrs by UPLC analysis; assay type: physicochemical
[17] = Solubility in 100 mM bistrispropane buffer at pH 8.0 incubated for 18 hrs by UPLC analysis; assay type: physicochemical
[18] = Half life in LYD pig at 1.6 mM, sc co-formulated with 1.6 mM liraglutide by LC-MS analysis; assay type: ADME, organism-based, Sus scrofa; conditions: in vivo
[19] = Dose normalized AUC in LYD pig at 1.6 mM, sc co-formulated with 1.6 mM liraglutide by LC-MS analysis; assay type: ADME, organism-based, Sus scrofa; conditions: in vivo, 1600 µM
[20] = Half life in LYD pig at 1.6 mM, sc co-dosed with 1.6 mM liraglutide by LC-MS analysis; assay type: ADME, organism-based, Sus scrofa; conditions: in vivo
[21] = Dose normalized AUC in LYD pig at 1.6 mM, sc co-dosed with 1.6 mM liraglutide by LC-MS analysis; assay type: ADME, organism-based, Sus scrofa; conditions: in vivo, 1600 µM
[22] = biological target: T1, Amylin receptor AMY3; CALCR/RAMP3; experiment: Displacement of [125I]-labeled rat amylin from human amylin receptor expressed in BHK570 cell membranes co-expressing RAMP3 incubated for 120 mins by scintillation proximity assay
Calcitonin receptor [23] = biological target: T2, Calcitonin receptor; experiment: Displacement of [125I]-labeled human calcitonin from human calcitonin receptor expressed in BHK tkts13 cell membranes incubated for 1 hr by scintillation proximity assay
[24] = biological target: T1, Amylin receptor AMY3; CALCR/RAMP3; experiment: Displacement of [125I]-labeled rat amylin from human amylin receptor expressed in BHK tkts13 whole cells co-expressing RAMP3 incubated for 60 mins by scintillation proximity assay; assay type: cell-based
Calcitonin receptor [25] = biological target: T2, Calcitonin receptor; experiment: Displacement of [125I]-labeled human calcitonin from human calcitonin receptor expressed in BHK tkts13 whole cells incubated for 60 mins by scintillation proximity assay; assay type: cell-based
Rattus norvegicus [26] = experiment: Reduction in body weight in Sprague-Dawley rat model of diet-induced obesity assessed as relative body weight at 0.1 mg/kg, sc dosed dosed once daily during 0 to 28 days and measured on day 28 relative to initial body weight (reference value: 99.8 +.- 1.1%); assay type: functional; design: scale not given: the % may be the effect or the level left

CC(C)C[C@H](NC(=O)[C@H](CCCCN)NC(=O)CNC(=O)[C@H](CC(C)C)NC(=O)[C@@H](NC(=O)[C@H](CS)NC(=O)[C@@H](NC(=O)[C@H](CO)NC(=O)[C@H](CC(C)C)NC(=O)[C@H](CC(N)=O)NC(=O)[C@H](CO)NC(=O)[C@@H](N)CS)[C@@H](C)O)C(C)C)C(=O)N[C@@H](CO)C(=O)N[C@@H](CCC(N)=O)C(=O)N[C@@H](CCC(=O)O)C(=O)N[C@@H](CC(C)C)C(=O)N[C@@H](Cc1cnc[nH]1)C(=O)N[C@@H](CCCCN)C(=O)N[C@@H](CC(C)C)C(=O)N[C@@H](CCC(N)=O)C(=O)N[C@H](C(=O)N[C@@H](Cc1ccc(O)cc1)C(=O)N1CCC[C@H]1C(=O)N[C@@H](CCCNC(=N)N)C(=O)N[C@H](C(=O)N[C@@H](CC(N)=O)C(=O)N[C@H](C(=O)NCC(=O)N[C@@H](CO)C(=O)NCC(=O)N[C@H](C(=O)N1CCC[C@H]1C(=O)O)[C@@H](C)O)[C@@H](C)O)[C@@H](C)O)[C@@H](C)O
half-life [1]: 1 h

CC(C)C[C@H](NC(=O)[C@H](C)NC(=O)[C@H](C)NC(=O)[C@@H](NC(=O)[C@H](CO)NC(=O)[C@H](CC(C)C)NC(=O)[C@H](CCC(=O)O)NC(=O)[C@H](CO)NC(=O)[C@H](C)NC(=O)CC[C@H](NC(=O)CCCCCCCCCCCCCCCCC(=O)O)C(=O)O)[C@@H](C)O)C(=O)NCC(=O)N[C@@H](CCCNC(=N)N)C(=O)N[C@@H](CC(C)C)C(=O)N[C@@H](CO)C(=O)N[C@@H](C)C(=O)N[C@@H](CCC(=O)O)C(=O)N[C@@H](CC(C)C)C(=O)N[C@@H](Cc1cnc[nH]1)C(=O)N[C@@H](CCC(=O)O)C(=O)N[C@@H](CC(C)C)C(=O)N[C@@H](C)C(=O)N[C@H](C(=O)N[C@@H](CC(C)C)C(=O)N1CCC[C@H]1C(=O)N[C@@H](CCCNC(=N)N)C(=O)N[C@H](C(=O)N[C@@H](CCC(=O)O)C(=O)N[C@H](C(=O)NCC(=O)N[C@@H](CO)C(=O)NCC(=O)N[C@@H](CO)C(=O)N1CCC[C@H]1C(N)=O)[C@@H](C)O)[C@@H](C)O)[C@@H](C)O ({C18 diacid-γGlu}-ASELSTAALGRLSAELHELATLPRTETGSGSP-NH2)
Activity (Rattus norvegicus [2]): 82%
Activity (Rattus norvegicus [3]): 78%
EC50 [4]: 0.016 nM
EC50 (Calcitonin receptor [5]): 0.017 nM
EC50 [6]: 0.026 nM
EC50 (Calcitonin receptor [7]): 0.011 nM
Time [8]: > 45 h
remaining at 1 µM [9]: 100%
solubility at 18 h [10]: ≥ 200 µM
solubility at 18 h [11]: ≥ 200 µM
solubility at 18 h [12]: ≥ 200 µM
solubility at 18 h [13]: ≥ 200 µM
solubility at 18 h [14]: ≥ 200 µM
solubility at 18 h [15]: ≥ 200 µM
solubility at 18 h [16]: ≥ 200 µM
solubility at 18 h [17]: ≥ 200 µM
half-life at 1600 µM [18]: 133 h
AUC/dose [19]: 656 kg·h/L
half-life at 1600 µM [20]: 129 h
AUC/dose [21]: 624 kg·h/L

CC(C)C[C@H](NC(=O)[C@H](C)NC(=O)[C@H](C)NC(=O)[C@@H](NC(=O)[C@H](CO)NC(=O)[C@H](CC(C)C)NC(=O)[C@H](CCC(=O)O)NC(=O)[C@H](CO)NC(=O)[C@H](C)NC(=O)COCCOCCNC(=O)COCCOCCNC(=O)COCCOCCNC(=O)CC[C@H](NC(=O)CCCCCCCCCCCCCCCCCCC(=O)O)C(=O)O)[C@@H](C)O)C(=O)NCC(=O)N[C@@H](CCCNC(=N)N)C(=O)N[C@@H](CC(C)C)C(=O)N[C@@H](CO)C(=O)N[C@@H](C)C(=O)N[C@@H](CCC(=O)O)C(=O)N[C@@H](CC(C)C)C(=O)N[C@@H](Cc1cnc[nH]1)C(=O)N[C@@H](CCC(=O)O)C(=O)N[C@@H](CC(C)C)C(=O)N[C@@H](C)C(=O)N[C@H](C(=O)N[C@@H](CC(C)C)C(=O)N1CCC[C@H]1C(=O)N[C@@H](CCCNC(=N)N)C(=O)N[C@H](C(=O)N[C@@H](CCC(=O)O)C(=O)N[C@H](C(=O)NCC(=O)N[C@@H](CO)C(=O)NCC(=O)N[C@@H](CO)C(=O)N1CCC[C@H]1C(N)=O)[C@@H](C)O)[C@@H](C)O)[C@@H](C)O ({C20 diacid-γGlu-AEEA-AEEA-AEEA}-ASELSTAALGRLSAELHELATLPRTETGSGSP-NH2)
EC50 [4]: 0.018 nM
EC50 (Calcitonin receptor [5]): 0.011 nM
EC50 [6]: 0.068 nM
EC50 (Calcitonin receptor [7]): 0.025 nM
Time [8]: > 45 h
remaining at 1 µM [9]: 100%
solubility at 18 h [10]: ≥ 200 µM
solubility at 18 h [11]: ≥ 200 µM
solubility at 18 h [12]: ≥ 200 µM
solubility at 18 h [13]: ≥ 200 µM
solubility at 18 h [14]: ≥ 200 µM
solubility at 18 h [15]: ≥ 200 µM
solubility at 18 h [16]: ≥ 200 µM
solubility at 18 h [17]: ≥ 200 µM
IC50 [22]: 0.164 nM
IC50 (Calcitonin receptor [23]): 0.05 nM
IC50 [24]: 0.432 nM
IC50 (Calcitonin receptor [25]): 0.352 nM

CCCCCCCCCCCCCCCC(=O)N[C@@H](CCC(=O)NCCCC[C@H](NC(=O)[C@H](C)NC(=O)[C@H](C)NC(=O)[C@H](CCC(N)=O)NC(=O)CNC(=O)[C@H](CCC(=O)O)NC(=O)[C@H](CC(C)C)NC(=O)[C@H](Cc1ccc(O)cc1)NC(=O)[C@H](CO)NC(=O)[C@H](CO)NC(=O)[C@@H](NC(=O)[C@H](CC(=O)O)NC(=O)[C@H](CO)NC(=O)[C@@H](NC(=O)[C@H](Cc1ccccc1)NC(=O)[C@@H](NC(=O)CNC(=O)[C@H](CCC(=O)O)NC(=O)[C@H](C)NC(=O)[C@@H](N)Cc1cnc[nH]1)[C@@H](C)O)[C@@H](C)O)C(C)C)C(=O)N[C@@H](CCC(=O)O)C(=O)N[C@@H](Cc1ccccc1)C(=O)N[C@H](C(=O)N[C@@H](C)C(=O)N[C@@H](Cc1c[nH]c2ccccc12)C(=O)N[C@@H](CC(C)C)C(=O)N[C@H](C(=O)N[C@@H](CCCNC(=N)N)C(=O)NCC(=O)N[C@@H](CCCNC(=N)N)C(=O)NCC(=O)O)C(C)C)[C@@H](C)CC)C(=O)O [LIRAGLUTIDE]
Activity (Rattus norvegicus [26]): 93.9%
